Test results: ChEMBL document CHEMBL2203257 (Bioorg Med Chem Lett, 2012); call rule not given here

What was measured:
[1] = biological target: Calcium/calmodulin-dependent protein kinase kinase 2 (Homo sapiens, UniProt Q96RR4); assay: Inhibition of CAMKK2
[2] = biological target: Cyclin-dependent kinase 2 (Homo sapiens, UniProt P24941); assay: Inhibition of CDK2
[3] = biological target: Cyclin-dependent kinase 5 (Homo sapiens, UniProt Q00535); assay: Inhibition of CDK5
[4] = biological target: Casein kinase II subunit alpha (Homo sapiens, UniProt P68400); assay: Inhibition of CK2a1
Chain of Casein kinase II subunit alpha (P68400 whole entry): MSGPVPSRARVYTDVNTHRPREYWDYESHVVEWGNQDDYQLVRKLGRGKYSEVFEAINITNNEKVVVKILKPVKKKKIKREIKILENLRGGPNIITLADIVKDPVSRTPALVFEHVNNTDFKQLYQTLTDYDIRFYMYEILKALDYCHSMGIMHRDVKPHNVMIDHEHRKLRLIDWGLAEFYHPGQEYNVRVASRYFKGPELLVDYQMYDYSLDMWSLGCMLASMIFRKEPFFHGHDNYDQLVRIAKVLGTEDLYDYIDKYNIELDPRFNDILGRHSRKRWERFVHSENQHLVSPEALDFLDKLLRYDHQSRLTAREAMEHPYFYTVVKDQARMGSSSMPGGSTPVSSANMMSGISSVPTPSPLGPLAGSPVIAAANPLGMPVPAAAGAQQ

[5] = biological target: Dual specificity protein kinase CLK2 (Homo sapiens, UniProt P49760); assay: Inhibition of CLK2
[6] = biological target: Casein kinase I isoform gamma-1 (Homo sapiens, UniProt Q9HCP0); assay: Inhibition of CSNK1G1
[7] = biological target: Epidermal growth factor receptor (Homo sapiens, UniProt P00533); assay: Inhibition of EGFR
eIF-2-alpha kinase GCN2 = eIF-2-alpha kinase GCN2 (Homo sapiens, UniProt Q9P2K8); assay: Inhibition of EIF2AK4
Ephrin type-A receptor 2 = Ephrin type-A receptor 2 (Homo sapiens, UniProt P29317); assay: Inhibition of EPHA2
Ephrin type-A receptor 3 = Ephrin type-A receptor 3 (Homo sapiens, UniProt P29320); assay: Inhibition of EPHA3
Chain of Ephrin type-A receptor 3 (P29320 whole entry): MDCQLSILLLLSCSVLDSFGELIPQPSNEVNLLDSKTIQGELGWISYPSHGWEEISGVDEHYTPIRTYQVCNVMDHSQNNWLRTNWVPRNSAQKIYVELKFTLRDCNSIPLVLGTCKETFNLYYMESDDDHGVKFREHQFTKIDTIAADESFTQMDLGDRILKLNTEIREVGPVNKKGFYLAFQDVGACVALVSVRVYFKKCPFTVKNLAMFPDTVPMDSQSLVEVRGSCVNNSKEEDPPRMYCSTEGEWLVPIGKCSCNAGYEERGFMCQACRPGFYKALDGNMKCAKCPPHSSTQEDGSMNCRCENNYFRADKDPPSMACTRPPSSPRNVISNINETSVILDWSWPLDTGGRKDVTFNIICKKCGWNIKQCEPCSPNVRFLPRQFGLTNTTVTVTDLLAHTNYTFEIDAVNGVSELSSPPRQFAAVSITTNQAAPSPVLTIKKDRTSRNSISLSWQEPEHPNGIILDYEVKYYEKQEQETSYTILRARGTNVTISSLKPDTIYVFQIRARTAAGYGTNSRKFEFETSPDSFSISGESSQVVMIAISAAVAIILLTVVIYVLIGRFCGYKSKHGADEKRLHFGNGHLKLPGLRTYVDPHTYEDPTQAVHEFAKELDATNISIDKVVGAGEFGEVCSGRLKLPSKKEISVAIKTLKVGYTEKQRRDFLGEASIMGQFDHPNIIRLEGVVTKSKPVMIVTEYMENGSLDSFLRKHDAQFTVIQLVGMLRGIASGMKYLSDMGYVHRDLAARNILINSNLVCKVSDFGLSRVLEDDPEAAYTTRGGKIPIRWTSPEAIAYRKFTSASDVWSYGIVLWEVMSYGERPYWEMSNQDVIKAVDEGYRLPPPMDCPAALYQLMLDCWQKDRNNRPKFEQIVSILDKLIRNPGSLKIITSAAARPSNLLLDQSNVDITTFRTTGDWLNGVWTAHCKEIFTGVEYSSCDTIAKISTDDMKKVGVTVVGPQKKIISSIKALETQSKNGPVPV

Ephrin type-B receptor 2 = Ephrin type-B receptor 2 (Homo sapiens, UniProt P29323); assay: Inhibition of EPHB2
Ephrin type-B receptor 4 = Ephrin type-B receptor 4 (Homo sapiens, UniProt P54760); assay: Inhibition of EPHB4
Ephrin type-B receptor 6 = Ephrin type-B receptor 6 (Homo sapiens, UniProt O15197); assay: Inhibition of EPHB6
[8] = biological target: Glycogen synthase kinase-3 alpha (Homo sapiens, UniProt P49840); assay: Inhibition of GSK3A
[9] = biological target: Inhibitor of nuclear factor kappa-B kinase subunit epsilon (Homo sapiens, UniProt Q14164); assay: Inhibition of IKBKE
[10] = biological target: Tyrosine-protein kinase ITK/TSK (Homo sapiens, UniProt Q08881); assay: Inhibition of ITK
[11] = biological target: Tyrosine-protein kinase JAK1 (Homo sapiens, UniProt P23458); assay: Inhibition of JAK1
[12] = biological target: Serine/threonine-protein kinase SIK3 (Homo sapiens, UniProt Q9Y2K2); assay: Inhibition of KIAA0999
Chain of Serine/threonine-protein kinase SIK3 (Q9Y2K2 whole entry): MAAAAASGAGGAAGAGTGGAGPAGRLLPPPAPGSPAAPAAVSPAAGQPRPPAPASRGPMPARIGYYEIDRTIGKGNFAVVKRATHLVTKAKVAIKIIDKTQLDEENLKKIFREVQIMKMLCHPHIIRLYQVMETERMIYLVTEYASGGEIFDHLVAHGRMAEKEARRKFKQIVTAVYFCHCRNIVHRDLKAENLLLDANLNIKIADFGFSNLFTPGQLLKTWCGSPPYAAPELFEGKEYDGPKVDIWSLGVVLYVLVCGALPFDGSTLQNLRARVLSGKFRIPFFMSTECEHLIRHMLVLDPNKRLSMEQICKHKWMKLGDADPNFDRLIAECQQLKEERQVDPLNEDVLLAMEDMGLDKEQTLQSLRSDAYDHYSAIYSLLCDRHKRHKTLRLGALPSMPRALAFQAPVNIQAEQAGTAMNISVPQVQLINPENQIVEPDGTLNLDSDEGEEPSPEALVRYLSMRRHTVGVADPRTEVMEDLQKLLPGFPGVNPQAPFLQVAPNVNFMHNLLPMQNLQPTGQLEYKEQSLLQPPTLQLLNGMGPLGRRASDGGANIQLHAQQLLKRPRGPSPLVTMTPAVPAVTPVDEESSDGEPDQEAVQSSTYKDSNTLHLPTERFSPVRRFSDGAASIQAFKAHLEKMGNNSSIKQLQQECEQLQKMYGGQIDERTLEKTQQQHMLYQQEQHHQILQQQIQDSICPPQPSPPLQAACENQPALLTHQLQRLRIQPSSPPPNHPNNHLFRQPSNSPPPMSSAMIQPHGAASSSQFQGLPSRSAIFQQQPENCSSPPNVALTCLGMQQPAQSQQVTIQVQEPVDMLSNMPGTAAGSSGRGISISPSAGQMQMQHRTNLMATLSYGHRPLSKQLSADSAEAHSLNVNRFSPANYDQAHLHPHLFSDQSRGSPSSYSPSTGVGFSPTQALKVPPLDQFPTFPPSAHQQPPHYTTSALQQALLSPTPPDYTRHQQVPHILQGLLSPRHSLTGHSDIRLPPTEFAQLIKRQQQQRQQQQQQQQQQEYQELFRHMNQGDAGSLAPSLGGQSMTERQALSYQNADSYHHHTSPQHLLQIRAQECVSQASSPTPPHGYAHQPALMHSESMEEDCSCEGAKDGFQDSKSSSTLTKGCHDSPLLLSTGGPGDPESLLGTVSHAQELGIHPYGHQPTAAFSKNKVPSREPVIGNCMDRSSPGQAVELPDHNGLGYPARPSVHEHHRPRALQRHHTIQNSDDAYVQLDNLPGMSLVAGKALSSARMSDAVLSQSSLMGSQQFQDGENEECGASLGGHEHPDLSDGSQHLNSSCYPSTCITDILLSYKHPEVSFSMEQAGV

[13] = biological target: Tyrosine-protein kinase Lck (Homo sapiens, UniProt P06239); assay: Inhibition of LCK
LIM domain kinase 1 = LIM domain kinase 1 (Homo sapiens, UniProt P53667); assay: Inhibition of LIMK1
[14] = biological target: Dual specificity mitogen-activated protein kinase kinase 5 (Homo sapiens, UniProt Q13163); assay: Inhibition of MAP2K5
Chain of Dual specificity mitogen-activated protein kinase kinase 5 (Q13163 whole entry): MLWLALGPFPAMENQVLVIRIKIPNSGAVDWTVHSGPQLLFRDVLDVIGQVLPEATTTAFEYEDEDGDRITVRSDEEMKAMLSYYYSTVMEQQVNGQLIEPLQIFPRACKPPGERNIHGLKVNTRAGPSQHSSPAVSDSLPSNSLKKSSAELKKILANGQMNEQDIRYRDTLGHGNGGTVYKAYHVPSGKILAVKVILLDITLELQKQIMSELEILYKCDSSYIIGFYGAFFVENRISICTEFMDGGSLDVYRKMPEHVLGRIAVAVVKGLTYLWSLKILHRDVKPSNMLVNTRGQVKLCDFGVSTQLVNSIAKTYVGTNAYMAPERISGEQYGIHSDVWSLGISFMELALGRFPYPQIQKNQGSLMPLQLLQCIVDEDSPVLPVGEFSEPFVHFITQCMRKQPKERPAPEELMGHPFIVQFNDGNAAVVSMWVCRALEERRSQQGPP

[15] = biological target: Mitogen-activated protein kinase kinase kinase 1 (Homo sapiens, UniProt Q13233); assay: Inhibition of MAP3K1
[16] = biological target: Mitogen-activated protein kinase 11 (Homo sapiens, UniProt Q15759); assay: Inhibition of MAPK11
Chain of Mitogen-activated protein kinase 11 (Q15759 whole entry): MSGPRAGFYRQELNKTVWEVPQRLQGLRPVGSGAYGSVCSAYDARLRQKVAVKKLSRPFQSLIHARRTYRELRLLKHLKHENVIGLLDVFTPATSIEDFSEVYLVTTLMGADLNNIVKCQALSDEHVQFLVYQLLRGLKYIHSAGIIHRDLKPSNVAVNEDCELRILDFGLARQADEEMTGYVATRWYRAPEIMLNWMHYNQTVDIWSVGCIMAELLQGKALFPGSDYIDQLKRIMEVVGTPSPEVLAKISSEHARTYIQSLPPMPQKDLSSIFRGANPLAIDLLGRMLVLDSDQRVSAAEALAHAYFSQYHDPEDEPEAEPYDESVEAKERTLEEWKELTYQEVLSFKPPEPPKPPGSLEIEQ

[17] = biological target: Serine/threonine-protein kinase PAK 4 (Homo sapiens, UniProt O96013); assay: Inhibition of PAK4
[18] = biological target: 3-phosphoinositide-dependent protein kinase 1 (Homo sapiens, UniProt O15530); assay: Inhibition of PDPK1
[19] = biological target: Phosphatidylinositol 3-kinase catalytic subunit type 3 (Homo sapiens, UniProt Q8NEB9); assay: Inhibition of PIK3C3
[20] = biological target: Phosphatidylinositol 4,5-bisphosphate 3-kinase catalytic subunit alpha isoform (Homo sapiens, UniProt P42336); assay: Inhibition of PIK3Ca
[21] = biological target: Phosphatidylinositol 4,5-bisphosphate 3-kinase catalytic subunit gamma isoform (Homo sapiens, UniProt P48736); assay: Inhibition of PIK3Cg
[22] = biological target: 5'-AMP-activated protein kinase catalytic subunit alpha-2 (Homo sapiens, UniProt P54646); assay: Inhibition of PRKAA2
[23] = biological target: Protein kinase C theta type (Homo sapiens, UniProt Q04759); assay: Inhibition of PRKCQ
[24] = biological target: Serine/threonine-protein kinase RIO2 (Homo sapiens, UniProt Q9BVS4); assay: Inhibition of RIOK2
[25] = biological target: Receptor-interacting serine/threonine-protein kinase 2 (Homo sapiens, UniProt O43353); assay: Inhibition of RIPK2
[26] = biological target: Serine/threonine-protein kinase SIK2 (Homo sapiens, UniProt Q9H0K1); assay: Inhibition of SIK2
[27] = biological target: Serine/threonine-protein kinase 17B (Homo sapiens, UniProt O94768); assay: Inhibition of STK17B
[28] = biological target: Serine/threonine-protein kinase TAO2 (Homo sapiens, UniProt Q9UL54); assay: Inhibition of TAOK2
[29] = biological target: Serine/threonine-protein kinase TBK1 (Homo sapiens, UniProt Q9UHD2); assay: Inhibition of TBK1
Chain of Serine/threonine-protein kinase TBK1 (Q9UHD2 whole entry): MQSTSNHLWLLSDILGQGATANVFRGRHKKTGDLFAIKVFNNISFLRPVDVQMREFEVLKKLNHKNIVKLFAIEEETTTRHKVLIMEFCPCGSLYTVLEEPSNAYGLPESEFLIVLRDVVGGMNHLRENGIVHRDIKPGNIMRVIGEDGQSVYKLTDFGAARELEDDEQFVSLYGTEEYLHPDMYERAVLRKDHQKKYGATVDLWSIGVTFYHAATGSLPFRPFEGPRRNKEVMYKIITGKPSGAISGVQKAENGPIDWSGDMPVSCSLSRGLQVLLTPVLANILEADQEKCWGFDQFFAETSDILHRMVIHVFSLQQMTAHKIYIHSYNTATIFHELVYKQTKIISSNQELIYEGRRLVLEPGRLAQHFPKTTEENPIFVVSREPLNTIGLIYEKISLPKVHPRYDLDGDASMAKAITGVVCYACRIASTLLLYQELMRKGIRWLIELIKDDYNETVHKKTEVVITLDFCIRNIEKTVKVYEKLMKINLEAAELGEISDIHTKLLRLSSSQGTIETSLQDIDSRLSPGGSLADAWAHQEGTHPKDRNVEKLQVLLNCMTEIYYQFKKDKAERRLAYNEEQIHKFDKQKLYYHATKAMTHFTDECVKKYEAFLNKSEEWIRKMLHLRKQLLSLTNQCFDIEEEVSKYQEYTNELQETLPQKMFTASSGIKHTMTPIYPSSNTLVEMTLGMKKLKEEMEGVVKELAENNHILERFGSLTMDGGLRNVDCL

[30] = biological target: Non-receptor tyrosine-protein kinase TYK2 (Homo sapiens, UniProt P29597); assay: Inhibition of TYK2
[31] = biological target: Serine/threonine-protein kinase ULK3 (Homo sapiens, UniProt Q6PHR2); assay: Inhibition of ULK3
[32] = biological target: Tyrosine-protein kinase Yes (Homo sapiens, UniProt P07947); assay: Inhibition of YES1
[33] = Clearance in cynomolgus monkey; type: ADME, organism-based, Macaca fascicularis; conditions: in vivo
[34] = Half life in cynomolgus monkey; type: ADME, organism-based, Macaca fascicularis; conditions: in vivo
Cytochrome P450 2D6 = Cytochrome P450 2D6 (Homo sapiens, UniProt P10635); assay: Inhibition of CYP2D6 at >20 uM; type: ADME
Chain of Cytochrome P450 2D6 (P10635 whole entry): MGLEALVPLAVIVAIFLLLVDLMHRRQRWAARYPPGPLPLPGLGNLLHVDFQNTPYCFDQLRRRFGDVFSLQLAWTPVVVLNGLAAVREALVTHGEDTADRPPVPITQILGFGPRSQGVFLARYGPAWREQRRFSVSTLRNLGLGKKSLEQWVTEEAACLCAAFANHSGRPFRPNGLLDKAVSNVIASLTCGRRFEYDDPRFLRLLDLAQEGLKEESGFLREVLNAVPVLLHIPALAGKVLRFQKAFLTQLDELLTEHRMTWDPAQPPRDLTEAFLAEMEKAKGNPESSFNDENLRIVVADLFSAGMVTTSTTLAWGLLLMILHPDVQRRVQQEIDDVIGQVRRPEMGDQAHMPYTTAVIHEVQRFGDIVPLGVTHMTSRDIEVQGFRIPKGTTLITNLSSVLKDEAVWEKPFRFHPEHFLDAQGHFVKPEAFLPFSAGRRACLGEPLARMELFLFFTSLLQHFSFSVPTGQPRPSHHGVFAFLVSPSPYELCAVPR

Cytochrome P450 3A4 = Cytochrome P450 3A4 (Homo sapiens, UniProt P08684); assay: Inhibition of CYP3A4 at >20 uM; type: ADME
Mus musculus [35] = assay: Antiarthritic activity against collagen-induced arthritis mouse model assessed as mean clinical arthritis score with AUC calculation in at 3 mg/kg, po BID for 14 days; type: functional
[36] = Cmax in mouse at 3 mg/kg, po BID; type: ADME, organism-based; parameters: dose 3 mg/kg, route oral; conditions: in vivo
[37] = Cmax in mouse at 10 mg/kg, po BID; type: ADME, organism-based; parameters: dose 10 mg/kg, route oral; conditions: in vivo
Mus musculus [38] = assay: Antiarthritic activity against collagen-induced arthritis mouse model assessed as inhibition of disease progression at 3 mg/kg, po BID for 14 days; type: functional; conditions: 336 h
Activin receptor type-1 = Activin receptor type-1 (Homo sapiens, UniProt Q04771); assay: Inhibition of ACVR1
Activin receptor type-1B = Activin receptor type-1B (Homo sapiens, UniProt P36896); assay: Inhibition of ACVR1B
Activin receptor type-2B = Activin receptor type-2B (Homo sapiens, UniProt Q13705); assay: Inhibition of ACVR2B
[39] = biological target: Atypical kinase COQ8B, mitochondrial (Homo sapiens, UniProt Q96D53); assay: Inhibition of ADCK4
[40] = biological target: Serine/threonine-protein kinase A-Raf (Homo sapiens, UniProt P10398); assay: Inhibition of ARAF
Aurora kinase A = Aurora kinase A (Homo sapiens, UniProt O14965); assay: Inhibition of AURKA
Aurora kinase B = Aurora kinase B (Homo sapiens, UniProt Q96GD4); assay: Inhibition of AURKB
[41] = biological target: Mitogen-activated protein kinase 9 (Homo sapiens) (UniProt P45984); assay: Inhibition of MAPK9

Chain of Cyclin-dependent kinase 5 (Q00535 whole entry): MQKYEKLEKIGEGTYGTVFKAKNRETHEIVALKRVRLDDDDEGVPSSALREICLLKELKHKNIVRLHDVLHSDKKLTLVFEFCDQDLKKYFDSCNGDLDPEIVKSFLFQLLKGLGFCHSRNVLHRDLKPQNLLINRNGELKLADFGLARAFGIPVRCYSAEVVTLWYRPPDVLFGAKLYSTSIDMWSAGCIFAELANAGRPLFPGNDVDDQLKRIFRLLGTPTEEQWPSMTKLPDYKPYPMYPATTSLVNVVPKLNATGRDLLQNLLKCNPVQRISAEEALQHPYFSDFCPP

CC(C)(C)NS(=O)(=O)c1cncc(-c2ccn3nc(N)nc3c2)c1
IC50 [1]: > 10 µM | IC50 [2]: > 10 µM | IC50 [3]: > 10 µM | IC50 [4]: > 10 µM | IC50 [5]: > 10 µM | IC50 [6]: 9.55 µM | IC50 [7]: > 10 µM | IC50 (eIF-2-alpha kinase GCN2): > 10 µM | IC50 (Ephrin type-A receptor 2): > 10 µM | IC50 (Ephrin type-A receptor 3): > 10 µM | IC50 (Ephrin type-B receptor 2): > 10 µM | IC50 (Ephrin type-B receptor 4): > 10 µM | IC50 (Ephrin type-B receptor 6): > 10 µM | IC50 [8]: > 10 µM | IC50 [9]: > 10 µM | IC50 [10]: > 10 µM | IC50 [11]: 4.37 µM | IC50 [12]: > 10 µM | IC50 [13]: > 10 µM | IC50 (LIM domain kinase 1): > 10 µM | IC50 [14]: > 10 µM | IC50 [15]: > 10 µM | IC50 [16]: > 10 µM | IC50 [17]: 9.33 µM | IC50 [18]: > 10 µM | IC50 [19]: > 5.89 µM | IC50 [20]: 2450 nM | IC50 [21]: 24.5 nM | IC50 [22]: > 10 µM | IC50 [23]: > 10 µM | IC50 [24]: > 5.89 µM | IC50 [25]: > 10 µM | IC50 [26]: > 10 µM | IC50 [27]: > 10 µM | IC50 [28]: > 10 µM | IC50 [29]: > 10 µM | IC50 [30]: > 10 µM | IC50 [31]: > 10 µM | IC50 [32]: > 10 µM | clearance [33]: 1.6 mL/min/kg | half-life [34]: 366 min | inhibition (INH) (Cytochrome P450 2D6): Active | inhibition (INH) (Cytochrome P450 3A4): Active | Activity (Mus musculus [35]): 30% | Cmax [36]: 2500 nM | Cmax [37]: 10.2 µM | inhibition in vivo at 3 mg/kg (Mus musculus [38]): 41% | IC50 (Activin receptor type-1): > 10 µM | IC50 (Activin receptor type-1B): > 10 µM | IC50 (Activin receptor type-2B): > 10 µM | IC50 [39]: > 10 µM | IC50 [40]: > 10 µM | IC50 (Aurora kinase A): > 10 µM | IC50 (Aurora kinase B): > 10 µM | IC50 [41]: > 10 µM
